Experiments:
[1] = system: primary human peripheral blood mononuclear cells (PBMCs); experiment: LPS stimulated human PBMC cytokine release; assay type: cell-based; conditions: LPS 1 ng/ml, 48 hours; C-2250 500, 1000, 1500 μM; five donors
Description: The ability of C-2250 to suppress in vitro cytokine release from primary human peripheral blood mononuclear cells (PBMCs) was assessed. Lipopolysaccharide (LPS) inhibition by C-2250 was determined. PBMCs from five individual, normal healthy human volunteers were incubated with C-2250, followed by LPS stimulation for 48 hours. Detection of three different cytokines was performed using an antibody capture bead-based kit and flow cytometric analysis.
Cryopreserved PBMCs from five healthy human donors (IQ Biosciences, Catalog #I QB-PBMC103) were thawed and cultured in RPMI 1640 medium (Gibco RPMI-1640 Medium (ATCC, Catalog #30-2001) supplemented with 10% FCS, 2 mM L-glutamine, 100 IU/mL penicillin, 100 μg/mL streptomycin, 1 mM sodium pyruvate (all from ThermoFisher) with viability >85% as determined automated cell counter (Countess II FL Automated Cell Counter; ThermoFisher; Catalog #AMQAF1000) prior to experiments. For C-2250, a 73 mM stock was prepared in sterile Lactated Ringer's Solution less than two hours prior to the start of the assay by adding 100 mg C-2250 into 10 mL Lactated Ringer's Solution. Prior to use in the assay, the pH of the solution was adjusted to 7.3. 100 μl of PBMCs at 1.0×10^7 cells/mL were washed and re-suspended in tissue culture medium containing a fixed concentration (1 ng/ml) of LPS from E. coli, serotype 0111:B4. LPS stimulation was performed for 48 hours at 37° C., 5% CO2 prior to harvesting tissue culture supernatant for cytokine analysis. C-2250 was used at 500, 1000, and 1500 μM concentrations.
Each symbol represents the mean value of triplicate analysis of a single donor. Each bar per treatment group represents the mean value of all donors where the triplicate value of each donor is averaged.

[2] = system: Raji, a human CD19 expressing target B cell line; experiment: CD19 CAR-T co-culture assay with Raji cells: CAR-T mediated target cell lysis; assay type: cell-based; conditions: E:T ratios 5:1, 10:1, 20:1
Description: (§1) Human CD19 specific CAR-T effector cells from a donor were co-cultured with Raji, a human CD19 expressing target B cell line at different effector to target cell ratios of 5:1, 10:1, and 20:1 in the presence of C-2250. Co-culture was performed for 6 hours or 24 hours at 37° C., 5% CO2 prior to harvesting cells for CAR-T mediated target cell lysis or tissue culture supernatant for cytokine analysis. C-2250 was used at 500, 1000, and 1500 μM concentrations and was allowed to pre-incubate with CAR-T cells prior to addition of tumor target cells.
FIGS. 2A-2C show the results of CD19 CAR-T co-culture assay with CD-19 tumor cells (Raji) at 6 hours, CAR-T mediated tumor target cell in the present of increasing concentrations of C-2250 are shown (E:T ratios of 5:1, 10:1, and 20:1 are shown in FIGS. 2A, 2B, and 2C, respectively). FIGS. 3A-3C show the results of CD19 CAR-T co-culture assay with CD-19 tumor cells (Raji) at 24 hours, CAR-T mediated tumor target cell in the present of increasing concentrations of C-2250 are shown (E:T ratios of 5:1, 10:1, and 20:1 are shown in FIGS. 3A, 3B, and 3C, respectively).

[3] = system: Human CD19 specific CAR-T effector cells; experiment: CD19 CAR-T co-culture assay with Raji cells: cytokine release; assay type: cell-based
Description: as §1

[4] = system: Ramos cells (a human CD19 expressing B cell line); experiment: PBMC/Ramos co-culture with BLINCYTO: target cell cytotoxicity; assay type: cell-based; conditions: 24 hours
Description: (§2) Inhibition of cytokine release by C-2250 in the presence of a bispecific CD19 T cell engager was assessed. Human PBMCs from ten donors were co-cultured with Ramos cells (a human CD19 expressing B cell line) in the presence of blinatumomab (BLINCYTO®), a T cell bispecific therapeutic, and C-2250 was added.
(§3) Co-culture was performed for 24 hours at 37° C., 5% CO2, prior to harvesting cells or tissue culture supernatant for analysis. C-2250 was used at 500, 1000, and 1500 μM concentrations and was allowed to pre-incubate with T cells prior to addition of BLINCYTO®.

Human PBMCs = experiment: PBMC/Ramos co-culture with BLINCYTO: cytokine release; assay type: cell-based
Description: as §2, §3

[5] = Solubility in water / isotonicity; assay type: physicochemical
[6] = system: CAR T cell-induced severe or life-threatening CRS; conditions: two cohorts; adults and pediatric patients 2 years and older; cited from earlier work
[7] = E:T ratios 5:1, 10:1, 20:1, C-2250 500, 1000, 1500 μM
[8] = C-2250 500, 1000, 1500 μM with BLINCYTO 100 ng/ml, 24 hours

Row | concentration of isotonic solution [5] [%] | solubility in water ([5]; no PVP necessary) | Compound | inhibition of IL-1β cytokine release [1] | inhibition of IL-6 cytokine release [1] | inhibition of TNF-α cytokine release [1] | CD19 CAR-T mediated CD19+ tumor target cell cytotoxicity ([2]; 6 hours) | CD19 CAR-T mediated CD19+ tumor target cell cytotoxicity ([2]; 24 hours) | cytokine release (including IL-1β, IL-6, TNF-α, and IFN-γ cytokines) ([3]; CAR-T/Raji co-culture, summary statement) | CD19 CAR-T cell mediated IFN-γ cytokine release [3, 7] | CD19 CAR-T cell mediated IL-2 cytokine release [3, 7] | CD19 CAR-T cell mediated TNF-α cytokine release [3, 7] | BLINCYTO mediated CD19+ tumor target cell cytotoxicity ([4]; C-2250 500, 1000, 1500 μM with BLINCYTO 100 ng/ml) | tumor target cytotoxicity in the absence of BLINCYTO ([4]; no BLINCYTO, PBMC/Ramos co-culture) | BLINCYTO T-cell mediated IFN-γ cytokine release (Human PBMCs; [8]) | BLINCYTO T-cell mediated IL-1β cytokine release (Human PBMCs; [8]) | BLINCYTO T-cell mediated IL-2 cytokine release (Human PBMCs; [8]) | BLINCYTO T-cell mediated IL-6 cytokine release (Human PBMCs; [8]) | BLINCYTO T-cell mediated TNF-α cytokine release (Human PBMCs; [8]) | release of all of the tested cytokines (Human PBMCs; with BLINCYTO, summary statement) | response rates [6]
1 | 3.2 | very soluble | O=S1(=O)CCOCN1 [C-2250, Tetrahydro1,4,5-oxathiazin-4-dioxide] | dose-dependent inhibition | dose-dependent inhibition | dose-dependent inhibition | does not abrograte | does not abrograte | shuts down | reduces | reduces | reduces | did not reduce | increased | reduced | reduced | reduced | reduced | reduced | reduced | –
2 | – | – | tocilizumab: monoclonal antibody blocking the interleukin-6 (IL-6) receptor | – | – | – | – | – | – | – | – | – | – | – | – | – | – | – | – | – | 53%-69%

Reference: US12514847B2, “Oxathiazin_dioxide for treating, preventing, inhibiting or reducing cytokine release” (Geistlich Pharma AG, priority 2019, dated 2026)
